IC50 data for 43 compounds are collected here from US5214204A, “Arylamidoalkyl-N-hydroxyurea compounds having lipoxygenase inhibitory activity” (Abbott Laboratories, priority 1991, dated 1993).

Structures are written as SMILES.

A word on the IC50: it is the concentration that inhibits the measured activity by half.

The target in this assay is T1, 5-Lipoxygenase from HWBL-1 20,000 xg Supernatant (Rattus norvegicus, UniProt P12527).
T1 construct: 20,000 xg supernatant from 1.5 million homogenized HWBL-1 cells; endogenous in cells
T1 sequence (P12527 1-673): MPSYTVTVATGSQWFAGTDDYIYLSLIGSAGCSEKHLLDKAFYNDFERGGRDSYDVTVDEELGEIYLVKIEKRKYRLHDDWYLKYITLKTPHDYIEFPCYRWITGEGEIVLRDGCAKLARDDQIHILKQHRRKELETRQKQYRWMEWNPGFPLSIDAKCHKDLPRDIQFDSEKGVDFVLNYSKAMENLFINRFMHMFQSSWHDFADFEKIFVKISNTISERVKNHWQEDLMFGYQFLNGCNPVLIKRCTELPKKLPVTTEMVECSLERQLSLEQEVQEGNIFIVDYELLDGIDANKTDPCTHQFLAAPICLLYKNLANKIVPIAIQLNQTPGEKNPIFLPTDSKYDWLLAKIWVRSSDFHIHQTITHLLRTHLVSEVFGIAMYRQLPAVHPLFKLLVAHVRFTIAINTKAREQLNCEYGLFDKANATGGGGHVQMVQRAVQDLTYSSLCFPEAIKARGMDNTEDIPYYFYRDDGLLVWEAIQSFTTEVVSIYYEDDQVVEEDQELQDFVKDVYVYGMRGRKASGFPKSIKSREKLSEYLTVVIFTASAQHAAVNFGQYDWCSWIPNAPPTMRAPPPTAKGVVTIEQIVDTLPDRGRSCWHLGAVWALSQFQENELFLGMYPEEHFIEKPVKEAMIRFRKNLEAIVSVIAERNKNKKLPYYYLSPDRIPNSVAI
In words: 5-lipoxygenase inhibition, 20,000 xg supernatant of homogenized HWBL-1 cells, radiolabeled arachidonic acid. Type of assay: biochemical. The conditions noted are these: read-out: IC50 (in vitro inhibitory potency against 5-lipoxygenase). The procedure:
Assays to determine 5-lipoxygenase inhibitory activity of representative compounds of the present invention were performed in […] incubations containing the 20,000 xg supernatant from 1.5 million homogenized HWBL-1 cells and various concentrations of the test compound. Reactions were initiated by addition of radiolabeled arachidonic acid and terminated by acidification and ether extraction. Reaction products were separated from nonconverted substrate by thin layer chromatography and measured by liquid scintillation spectroscopy. All incubations are performed in triplicate. Inhibition of 5-lipoxygenase activity was calculated as the ratio of the amount of product formed in the presence and absence of inhibitor. IC50 values (concentration of compound producing 50% enzyme inhibition) were calculated by linear regression analysis of percentage inhibition versus log inhibitor concentration plots. (Dyer, R. D.; Haviv, F.; Hanel, A. M.; Bornemier, D. A.; Carter, G. W. Fed. Proc., Fed. Am. Soc. Exp. Biol. 1984, 43, 1462A).
In Vitro Inhibitory Potencies of Compounds of this Invention
Against 5-Lipoxygenase from HWBL-1 20,000 xg Supernatant
Consider `CN(C(=O)CN(O)C(N)=O)c1cccc(Oc2ccccc2)c1` [5, step 2], for which the concentration for half-maximal inhibition (IC50) was determined as 6300 nM. For the compound `CNC(=O)N(O)CC(=O)N(C)c1cccc(Oc2ccccc2)c1` [5, step 3], the IC50 was 7300 nM. For `NC(=O)N(O)CC(=O)Nc1cccc(Oc2ccccc2)c1` [Example 1, N-Hydroxy-N-[(((3-phenoxyphenyl)amino)carbonyl)methyl]urea] the value was 480 nM; for `NC(=O)N(O)CC(=O)Nc1cccc(OCc2ccccc2)c1` [Example 3, N-Hydroxy-N-[(((3-phenylmethoxyphenyl)amino)carbonyl)methyl]urea], 870 nM; for `CN(C(=O)CN(O)C(N)=O)c1ccc(Oc2ccccc2)cc1` [Example 4], 5800 nM.

For `CN(C(=O)CN(O)C(N)=O)c1cccc(OCc2ccccc2)c1` [Example 9, N-Hydroxy-N-[((N-methyl-(3-phenylmethoxyphenyl)amino)carbonyl)methyl]urea], the IC50 stood at 2800 nM. In the case of `NC(=O)N(O)CC(=O)Nc1ccc(Oc2ccccc2)cc1` [Example 10, N-Hydroxy-N-[(((4-phenoxyphenyl)amino)carbonyl)methyl]urea], the IC50 was found to be 3500 nM. For `CC(/C=C/c1ccc(Br)cc1)NC(=O)CN(O)C(N)=O` (stereo not drawn) [Example 11, N-Hydroxy-N-[(((trans-4-(4-bromophenyl)but-3-en-2-yl)amino)carbonyl)methyl]urea] the value was 6600 nM; for `CC(/C=C/c1cccc(Oc2ccccc2)c1)NC(=O)CN(O)C(N)=O` (stereo not drawn) [Example 12, N-Hydroxy-N-[(((trans-4-(3-phenoxyphenyl)but-3-en-2-yl)amino)carbonyl)methyl]urea], 730 nM; for `CC(/C=C\c1cccc(Oc2ccccc2)c1)NC(=O)CN(O)C(N)=O` (stereo not shown) [Example 13], 830 nM.

As for `CN(CCN(O)C(N)=O)C(=O)Cc1ccc(Br)cc1` [Example 14, N-Hydroxy-N-[2-(((4-bromophenylacetyl)-N-methyl)amino)ethyl]urea], the IC50 came to 1800 nM. For `CN(CCN(O)C(N)=O)C(=O)c1cccc(Oc2ccccc2)c1` [Example 15] the value was 640 nM.

Consider `COc1cccc(C(=O)NCCN(O)C(N)=O)c1` [Example 16], for which the IC50 stood at 1900 nM. Consider `COc1ccc(C(=O)NCCN(O)C(N)=O)cc1` [Example 17], for which the IC50 was determined as 5000 nM. `CCCCOc1ccc(C(=O)NCCN(O)C(N)=O)cc1` [Example 18]: the concentration for half-maximal inhibition (IC50) turned out to be 250 nM.

Regarding `NC(=O)N(O)CCNC(=O)c1ccc(Cl)cc1` [Example 20, N-Hydroxy-N-[2-((4-chlorobenzoyl)amino)ethyl]urea], the concentration for half-maximal inhibition (IC50) came to 4500 nM. For `NC(=O)N(O)CCCCNC(=O)c1cccc(Oc2ccccc2)c1` [Example 22, N-Hydroxy-N-[4-((3-phenoxybenzoyl)amino)butyl]urea] the value was 330 nM; for `CNC(=O)N(O)CCNC(=O)c1cccc(Oc2ccccc2)c1` [Example 24, N-Hydroxy-N'-methyl-N-[2-((3-phenoxybenzoyl)amino)ethyl]urea], 290 nM. Under `NC(=O)N(O)CCNC(=O)c1cccc(Oc2cccc(C(F)(F)F)c2)c1` [Example 25, N-Hydroxy-N-[2-((3-(3-trifluoromethylphenoxy)benzoyl)amino)ethyl]urea] stands 430 nM; under `CNC(=O)N(O)CCNC(=O)c1cccc(Oc2ccc(Cl)cc2)c1` [Example 27, N-Hydroxy-N'-methyl-N-[2-((3-(4-chlorophenoxy)benzoyl)amino)ethyl]urea], 760 nM; under `COc1ccc(Oc2cccc(C(=O)NCCN(O)C(N)=O)c2)cc1` [Example 28, N-Hydroxy-N-[2-((3-(4-methoxyphenoxy)benzoyl)amino)ethyl]urea], 230 nM. Under `NC(=O)N(O)CCNC(=O)c1cccc(Oc2ccc(Cl)c(Cl)c2)c1` [Example 29, N-Hydroxy-N-[2-((3-(3,4-dichlorophenoxy)benzoyl)amino)ethyl]urea] stands 300 nM. Take `NC(=O)N(O)CCNC(=O)c1cccc(Oc2cc(Cl)cc(Cl)c2)c1` [Example 30, N-Hydroxy-N-[2-((3-(3.5-dichlorophenoxy)benzoyl)amino)ethyl]urea]: the IC50 was 340 nM. With `CC(C)(C)c1ccc(Oc2cccc(C(=O)NCCN(O)C(N)=O)c2)cc1` [Example 31, N-Hydroxy-N-[2-((3-(4-tert-butylphenoxy)benzoyl)amino)ethyl]urea], the half-inhibitory concentration (IC50) turned out to be 470 nM. Turning to `CC(CNC(=O)c1cccc(Oc2ccccc2)c1)N(O)C(N)=O` (stereo not shown) [Example 33, N-Hydroxy-N-[3-((3-phenoxybenzoyl)amino)prop-2-yl]urea], the IC50 came to 610 nM. Under `NC(=O)N(O)CCNC(=O)c1ccc(-c2ccccc2)cc1` [Example 34, N-Hydroxy-N-[2-((4-phenylbenzoyl)amino)ethyl]urea] stands 380 nM. For `CN(CCN(O)C(N)=O)Cc1cccc(Oc2ccc(Cl)c(Cl)c2)c1` [Example 39, N-Hydroxy-N-[2-(N-methyl((3-(3,4-dichlorophenoxy)phenyl)methyl)amino)ethyl]urea] the value was 310 nM; for `COc1ccc(CN(C)CCN(O)C(N)=O)cc1OCc1ccccc1` [Example 41, N-Hydroxy-N-[2-(((((4-methoxy-3-phenylmethoxy)phenyl)methyl)-N-methyl)amino)ethyl]urea], 1600 nM. For `CC(C)Oc1cccc(C(=O)NCCN(O)C(N)=O)c1` [Example 46, N-Hydroxy-N-[2-((3-(1-methylethoxy)benzoyl)amino)ethyl]urea] the value was 290 nM; for `C=C(C)COc1cccc(C(=O)NCCN(O)C(N)=O)c1` [Example 47, N-Hydroxy-N-[2-((3-(2-methyl-prop-2-enyloxy)benzoyl)amino)ethyl]urea], 230 nM.

Regarding `NC(=O)N(O)CCNS(=O)(=O)c1ccc2ccccc2c1` [Example 48, N-Hydroxy-N-[2-((naphth-2-ylsulfonyl)amino)ethyl]urea], the 50% inhibitory concentration (IC50) stood at 1100 nM.

`NC(=O)N(O)CCNC(=O)c1cccn1Cc1ccc(Cl)cc1` [Example 49, N-Hydroxy-N-[2-(((1-(4-chlorophenylmethyl)pyrrol-2-yl)carbonyl)amino)ethyl]urea]: the IC50 worked out at 290 nM. For `CC(CN(O)C(N)=O)N(C)C(=O)c1cccc(Oc2ccc(Cl)cc2)c1` (stereo not shown) [Example 50, N-Hydroxy-N-[2-(((3-(4-chlorophenoxy)benzoyl)-N-methyl)amino)propyl]urea] the value was 5800 nM. Under `CCCCCCOc1ccc(C(=O)NCCN(O)C(N)=O)cc1` [Example 57, N-Hydroxy-N-[2-((4-n-hexyloxybenzoyl)amino)ethyl]urea] stands 290 nM; under `NC(=O)N(O)CCNC(=O)c1cscc1Sc1ccc(Cl)cc1` [Example 59, N-Hydroxy-N-[2-((4-(4-chlorothiophenoxy)thien-3-oyl)amino)ethyl]urea], 100 nM. For `NC(=O)N(O)CCNC(=O)c1cccc(C(=O)c2ccccc2)c1` [Example 65, N-Hydroxy-N-[2-((3-benzoylbenzoyl)amino)ethyl]urea] the value was 220 nM. As to `CC(Oc1ccc(C(=O)NCCN(O)C(N)=O)cc1)c1ccccc1` (stereo not shown) [Example 66, N-Hydroxy-N-[2-((4-(1-phenylethyloxy)benzoyl)amino)ethyl]urea], the half-maximal inhibitory concentration (IC50) came to 250 nM.

`CC(Oc1cccc(C(=O)NCCN(O)C(N)=O)c1)c1ccccc1` (stereo not shown) [Example 67, N-Hydroxy-N-[2-((3-(1-phenylethyloxy)benzoyl)amino)ethyl]urea]: the IC50 was determined as 350 nM. For `CC(C(=O)NCCN(O)C(N)=O)c1cccc(C(C)c2ccccc2)c1` (stereo not shown) [Example 69, N-Hydroxy-N-[2-(((3-(1-phenylethyl)phenyl)propion-2-yl)amino)ethyl]urea] the value was 390 nM; for `NC(=O)N(O)CCNC(=O)COc1ccc(Oc2ccccc2)cc1` [Example 72, N-Hydroxy-N-[2-((4-phenoxyphenoxyacetyl)amino)ethyl] urea], 110 nM; for `NC(=O)N(O)CCNC(=O)c1ccc2ccccc2n1` [Example 75, N-Hydroxy-N-[2-((quinolin-2-oyl)amino)ethyl]urea], 100 nM.

For the compound `COc1ccc2cc(/C=C(\C)C(=O)NCCN(O)C(N)=O)ccc2c1` [Example 76, N-Hydroxy-N-[2-(((3-(6-methoxynaphth-2-yl)prop-2-en-2-yl)carbonyl)amino)ethyl]urea], the IC50 amounted to 1000 nM. For `NC(=O)N(O)CCNC(=O)CCc1ccccc1` [Example 77, N-Hydroxy-N-[2-((3-phenylpropionyl)amino)ethyl]urea] the value was 390 nM.
